According to patent publication US11034701B2, “Drug delivery and imaging chemical conjugate, formulations and methods of use thereof” (NanoPhagix LLC, priority 2015, dated 2021):

Experiment: Stability in HPLC mobile phases
Format: physicochemical
Settings: HPLC mobile phases: MeOH/H2O/0.05% TFA, acetonitrile/H2O
Source text: • 1. The HPLC purity may not be true. […] The HPLC purity is greatly dependent upon the HPLC mobile phases. With MeOH/H2O/0.05% of TFA buffer, the HPLC purity is 90%. With MeOH/H2O mobile phase, the HPLC purity is 91.7%. With acetonitrile/H2O mobile phase, the HPLC purity is 99%. […] HPLC condition for the compound of Formula 2

Row | SMILES | stability under HPLC conditions
1 | CO[C@H]1C[C@@H]2CC[C@@H](C)[C@@](O)(O2)C(=O)C(=O)N2CCCC[C@H]2C(=O)O[C@H]([C@H](C)C[C@@H]2CC[C@@H](OC(=O)CCCCCOC(=O)c3c(I)c(NC(C)=O)c(I)c(NC(C)=O)c3I)[C@H](OC)C2)CC(=O)[C@H](C)/C=C(\C)[C@@H](O)[C@@H](OC)C(=O)[C@H](C)C[C@H](C)/C=C/C=C/C=C/1C [Formula 2] | not stable under some HPLC conditions
2 | CO[C@H]1C[C@@H]2CC[C@@H](C)[C@@](O)(O2)C(=O)C(=O)N2CCCC[C@H]2C(=O)O[C@H]([C@H](C)C[C@@H]2CC[C@@H](O)[C@H](OC)C2)CC(=O)[C@H](C)/C=C(\C)[C@@H](O)[C@@H](OC)C(=O)[C@H](C)C[C@H](C)/C=C/C=C/C=C/1C [rapamycin] | same stability issues in HPLC mobile phases
